Reference: patent US20100055169A1, “CATIONIC LIPIDS AND USES THEREOF” (ABBOTT LABORATORIES, priority 2008, published 2010)
Blank lines part the entries; values can stand above or below the compound they belong to.

Legend:
[1] = test system: β-galactosidase in tumor sections; assay: IHC analysis of β-galactosidase staining in intraliver tumors after i.v. dosing of Lipid-Based Particles; type: in vivo, Scid female mice; conditions: intraliver tumor model, Scid mice, tail vein (i.v) injection
Description: The animal studies were carried out in accordance with internal Institutional Animal Care and Use Committee (IACUC) guidelines at Abbott Laboratories. Scid female mice at 6 to 8 weeks of age were obtained from Charles River Laboratory and used for […] tumor models. Mouse livers were exposed by vertical incision on mouse abdomens and the tumor cells were directly injected into the livers. The incision was closed by suture and wound clips. All cell lines used for creating xenograft tumors were subjected to the IMPACT profile I test (18 agents) at the University of Missouri Research Animal Diagnostic and Investigative Laboratory, and all cell lines were found negative for the 18 infectious agents tested. Tumor cells were suspended in a 1:1 mixture of S-MEM (Invitrogen, Carlsbad, Calif.) and matrigel (BD Bioscience, San Jose, Calif.) and inoculated at 1×10E6 cells per animal. Treatments were started 3 4 weeks after tumor inoculation. Formulated or unformulated siRNAs were administrated via tail vein (i.v) injection. IHC was carried out as previously described [Li, L., et al., Evaluating hypoxia-inducible factor-1alpha as a cancer therapeutic target via inducible RNA interference in vivo. Cancer Res, 2005. 65(16): p. 7249-58]. Briefly, tumors were excised, cut into pieces of less than 3 mm in thickness and immediately fixed in buffered formalin solution with neutral pH (Sigma, St. Louis, Mo.). The formalin-fixed and paraffin-embedded tumor sections were then used for staining. The mouse anti-β-galactosidase mAb (Promega, Madison, Wis.) was used to detect β-galactosidase in tumor sections. […] IHC images were acquired using the Nikon TE2000 inverted microscope. The β-galactosidase staining was evaluated by 2 people independently based on the scoring system listed below. The average of the score was calculated for each tumor.

[2] = Particle sizing by dynamic light scattering (DynaPro plate reader), in vitro formulations; type: physicochemical; conditions: in vitro formulation b: Cationic lipid/PEG-cholesterol/DSPC/Chol 45/10/15/30 wt %, lipid:siRNA 25:1
Description: (§1) The siRNA concentrations were measured using Quanti-iT RiboGreen RNA reagent (Molecular Probes, (R11490)). Vesicle sizes were characterized by dynamic light scattering with a DynaPro™ Plate Reader (Wyatt Technology) in 96-well half-area UV plate (Coring) after diluting the formulation sample (20 μL) in phosphate buffered saline (80 μL) at a pH of about 7-8. A 1% agarose gel-based assay was used for analyzing nuclease degradation and protection. Encapsulation efficiency (EE) was calculated using data obtained from a RiboGreen assay.
Particle sizes and size distributions (PDI) were characterized by using dynamic light scattering (DLS). A DLS plate reader (Dynapro™, Wyatt Technology) was used for the DLS measurement. This DLS plate reader uses an 830 nm laser and the scattering angle is 158°. It also can control temperature from 4° C. to 70° C. A 96-well format was employed for the samples.
Samples for DLS analysis were prepared by mixing 20 μL of each sample stock solution with 80 μL PBS directly in the 96-well plate (#3697, Corning). Sample mixing was accomplished using a microplate shaker (Orbis, Mikura Ltd.). Plates were read at 20° C. with an acquisition time of 50 seconds for each sample, and data was analyzed with Wyatt Technology's Dynamics V6 software. To rule out potential multiple scattering artifacts, a second plate at 4-fold reduced sample concentrations was independently prepared by mixing 5 μL stock solutions with 95 μL PBS. Under our experimental conditions the results at the two concentrations were very similar, and the final reported result for each sample represents the average of values obtained from the two plates.

[3] = Particle sizing assay (Zetasizer Nano ZS), in vivo formulations; type: physicochemical; conditions: lipid:siRNA 25:1
Description: (§2) A round bottom flask was submerged into a 65° C. water bath. Citrate buffer (37.5 ml) of pH 4.0 was pipetted into the flask. The solution was stirred by a magnetic stirring bar at a speed of 900 rpm. Both the pH 4.0 citrate buffer and the lipid solution were pre-warmed in the 65° C. water bath for about 3 minutes. A siRNA solution (0.5 ml) was pipetted into the pH 4.0 citrate buffer. The 12.5 ml lipid mixture solution was injected through a 27 gauge needle into the citrate buffer in about 30 seconds. The needle tip was inserted into the solution during the injection. The resulting solution was stirred for 5 minutes at a speed of 900 rpm. The flask was pulled up from the water bath and a 50 ml pH 7.4 PBS buffer was added into the flask. The final solution was further mixed at a speed of 900 rpm for 5 minutes. For the diafiltration process, a dialysis filter (Millipore, 100K, Cat#PXB100C50) was used to remove ethanol in the above solution. When the volume was reduced to 20 ml during the initial diafiltration, 20 ml of pH 7.4 PBS was added to the sample solution. The diafiltration was continued until the volume was reduced to 20 ml. The diafiltration process was repeated 4 times. The volume of the sample solution was reduced to about 12 ml and pH 7.4 PBS was added to make the final volume of 15 ml. The 15 ml solution was filtered sequentially through the 0.45 and 0.22 μm sterile PVDF membrane filters (Millipore) and immediately transferred into a sterile vial.
For measurements of particle sizes and size distributions (PDI), lipid-based particles were prepared as described above. The particle solution (60 μL) was pipetted into a disposable cuvette (UVette, Eppendorf, cat#952010051) and measured in the “General Purpose” mode. Attenuator and position were optimized by the device. Measurements were performed using a Zetasizer Nano ZS (Malvern Instruments) equipped with a 4 mW He—Ne laser at a wavelength of 633 nm at 25° C. Scattered light was detected at a 173° backward scattering angle. The viscosity and refractive index of water at 25° C. was used for data analysis with the Dispersion Technology Software 5.00 (Malvern Instruments).

[4] = RiboGreen assay of siRNA encapsulation efficiency, in vivo formulations of Lipid-Based Particles; type: physicochemical; conditions: lipid:siRNA 25:1
Description: (§3) RNA concentration and encapsulation efficiency were determined using a Quant-iT® Ribogreen RNA reagent and kit available from Invitrogen. The siRNA was released from the Lipid-Based Particle using one of the following reagents: ethanol, Triton X-100, or phenol/chloroform. The siRNA concentration is quantified using fluorescent reading at 480 nm/520 nm.
The lipid solution was prepared (10 mg/ml) by dissolving the lipid in 200 proof ethanol. The lipid mixture solution is prepared according to the above composition in Table 5.
An siRNA (TetR_ODC—12, G.G.G.G.A.A.A.G.C.U.G.G.C.A.A.G.A.U.U.U.U SEQ ID NO: 1) (ThermoFisher) solution is prepared in a concentration of 10 mg/ml by dissolving 10 mg siRNA in 1 ml of DNAse/RNAse-free distilled water.
as §2

[5] = RiboGreen assay of siRNA encapsulation efficiency, in vitro formulations of Lipid-Based Particles; type: physicochemical; conditions: in vitro formulation b: Cationic lipid/PEG-cholesterol/DSPC/Chol 45/10/15/30 wt %, lipid:siRNA 25:1
Description: The mixing solution of cationic lipids, cholesterol, non-cationic lipids and PEG-lipids was prepared in ethanol (total concentration at 10 mg/mL). siSTABLE (purchased from ThermoFisher) (sense-5′ GGGGAAAGCUGGCAAGAUUUU-3′SEQ ID NO. 1, antisense-5′-AAUCUUGCCAGCUUUCCCCUU-3′ SEQ ID NO: 2) % stock solution was prepared in 10 mg/mL of solution by dissolving 10 mg siRNA in 1 mL of RNAse-free UltraPure Water. The calculated amount of siRNA solution was added to 1 mL of citrate buffer (pH 4.0, 20 mM), to provide an siRNA concentration of 0.2 mg/mL, and warmed to 60 C. The calculated amount of lipid solution was warmed to 60 C, transferred to a 0.5 mL syringe with 28½ gauge needle, and injected into the citrate buffer with stirring at 60 C. After 3 minutes, 3 mL of PBS solution at room temperature (pH 7.4) was added into the lipid mixture with stirring. The Lipid-Based Particle solution was cooled to room temperature.
as §1, §3

[6] = in vivo formulation A: Cationic lipid/Example 73/DSPC/Chol 45/10/15/30 wt %
[7] = in vivo formulation I: Cationic lipid/PEG-DPPE/DSPC/Chol 45/10/15/30 wt %
[8] = in vivo formulation J: Cationic lipid/PEG-DSPE/DSPC/Chol 45/10/15/30 wt %
[9] = in vivo formulation L: Cationic lipid/PEG-DPG/DSPC/Chol 45/10/15/30 wt %
[10] = in vivo formulation C: Cationic lipid/Pal-PEG-Cera/DSPC/Chol 45/10/15/30 wt %

Compound: C[C@H]1c2cccc(O)c2C(=O)C2=C(O)[C@]3(O)C(=O)C(C(N)=O)=C(O)[C@@H](N(C)C)[C@@H]3[C@@H](O)[C@@H]21 [Doxycycline]
In vivo response: β-galactosidase IHC staining score ([1]; column 1): +++ (there was 80% of the section with strong straining) | In vivo response: β-galactosidase IHC staining score ([1]; column 2): +++ (there was 80% of the section with strong straining) | In vivo response: β-galactosidase IHC staining score ([1]; column 3): +++ (there was 80% of the section with strong straining) | In vivo response: β-galactosidase IHC staining score ([1]; column 4): +++ (there was 80% of the section with strong straining) | In vivo response: β-galactosidase IHC staining score ([1]; column 5): +++ (there was 80% of the section with strong straining) | In vivo response: β-galactosidase IHC staining score ([1]; column 6): +++ (there was 80% of the section with strong straining)

Size [2]: 123.2 nm | Size [3, 6]: 140 nm | Size distribution (PDI) [3, 6]: (0.15) | % Encapsulation Efficiency [4, 6]: 74% | % Encapsulation Efficiency [5]: 96.9%
Compound: CCCCC/C=C\C/C=C\CCCCCCCCOCC(CCN(C)CCOC)OCCCCCCCC/C=C\C/C=C\CCCCC (centres unmarked) [Example 7, N-(2-methoxyethyl)-N-methyl-3,4-bis[(9Z,12Z)-octadeca-9,12-dienyloxy]butan-1-amine]

Size [2]: 105.8 nm | Size [3, 6]: 160 nm | Size distribution (PDI) [3, 6]: (0.19) | Size [3, 7]: 93.4 nm | Size distribution (PDI) [3, 7]: (0.069) | Size [3, 8]: 98.1 nm | Size distribution (PDI) [3, 8]: (0.078) | Size [3, 9]: 98.7 nm | Size distribution (PDI) [3, 9]: (0.056) | % Encapsulation Efficiency [4, 6]: 87.5% | % Encapsulation Efficiency [4, 7]: 98% | % Encapsulation Efficiency [4, 8]: 98% | % Encapsulation Efficiency [4, 9]: 98% | % Encapsulation Efficiency [5]: 88.3%
Compound: CCCCC/C=C\C/C=C\CCCCCCCCOCC(CCN(C)CCN(C)C)OCCCCCCCC/C=C\C/C=C\CCCCC (centres unmarked) [Example 9, N-{3,4-bis[(9Z,12Z)-octadeca-9,12-dienyloxy]butyl}-N,N′,N′-trimethylethane-1,2-diamine]

Size [2]: 114.4 nm | Size [3, 6]: 149 nm | Size distribution (PDI) [3, 6]: (0.21) | Size [3, 10]: 101 nm | Size distribution (PDI) [3, 10]: (0.154) | % Encapsulation Efficiency [4, 10]: 97% | % Encapsulation Efficiency [5]: 86.2%
Compound: CCCCC/C=C\C/C=C\CCCCCCCCOCC(CCN1CCC(N(C)C)C1)OCCCCCCCC/C=C\C/C=C\CCCCC (centres unmarked) [Example 17, 1-{3,4-bis[(9Z,12Z)-octadeca-9,12-dienyloxy]butyl}-N,N-dimethylpyrrolidin-3-amine]
